Test results reported in the NIST ThermoML archive (doi:10.1021/je049895b).

Assay: xn = mol fraction of the nth substance listed
Details: 101.33 kPa, Liquid; for viscosity: Capillary tube (Ostwald / Ubbelohde) method

CCOC(=O)OCC [diethyl carbonate] + CC1CCCCC1
Details	speed of sound, 293.15 K [m/s]	speed of sound, 298.15 K [m/s]	speed of sound, 303.15 K [m/s]	speed of sound, 308.15 K [m/s]	speed of sound, 313.15 K [m/s]	viscosity, 293.15 K [mPa·s]	viscosity, 298.15 K [mPa·s]	viscosity, 303.15 K [mPa·s]	viscosity, 308.15 K [mPa·s]	viscosity, 313.15 K [mPa·s]
x1 = 0.0473	1229	1207	1185	1164	1142	0.709	0.662	0.621	0.583	0.548
x1 = 0.0978	1222	1201	1179	1157	1136	0.692	0.647	0.607	0.57	0.537
x1 = 0.1985	1211	1189	1168	1146	1125	0.678	0.633	0.593	0.558	0.525
x1 = 0.2968	1203	1181	1160	1138	1117	0.67	0.627	0.588	0.553	0.521
x1 = 0.3924	1196	1175	1154	1132	1111	0.672	0.628	0.589	0.554	0.522
x1 = 0.4993	1192	1171	1149	1128	1107	0.68	0.635	0.596	0.561	0.529
x1 = 0.5999	1189	1168	1147	1126	1105	0.695	0.649	0.609	0.572	0.539
x1 = 0.6985	1189	1168	1147	1126	1106	0.709	0.663	0.622	0.584	0.55
x1 = 0.7988	1191	1170	1149	1128	1108	0.732	0.684	0.642	0.603	0.568
x1 = 0.8996	1194	1173	1152	1132	1112	0.762	0.711	0.666	0.625	0.588
x1 = 0.9509	1196	1175	1155	1134	1114	0.787	0.735	0.687	0.645	0.607
x1 = 1	1198	1177	1157	1136	1116	0.809	0.75	0.702	0.658	0.618

C1CCCC1 [cyclopentane] + COC(=O)OC
Details	mass density [kg/m3]	speed of sound [m/s]	viscosity [mPa·s]
293.15 K, x2 = 0	744.43	1232	0.438
293.15 K, x2 = 0.0453	755.75	1219	0.429
293.15 K, x2 = 0.0871	766.47	1209	0.419
293.15 K, x2 = 0.1847	792.72	1192	0.417
293.15 K, x2 = 0.2915	823.38	1180	0.421
293.15 K, x2 = 0.3937	854.33	1174	0.432
293.15 K, x2 = 0.4904	884.96	1172	0.449
293.15 K, x2 = 0.5988	920.84	1174	0.472
293.15 K, x2 = 0.6963	954.64	1180	0.497
293.15 K, x2 = 0.8033	993.39	1190	0.531
293.15 K, x2 = 0.9028	1031.4	1204	0.573
293.15 K, x2 = 0.9532	1051.09	1212	0.601
298.15 K, x2 = 0	739.47	1206	0.415
298.15 K, x2 = 0.0453	750.69	1193	0.406
298.15 K, x2 = 0.0871	761.31	1184	0.397
298.15 K, x2 = 0.1847	787.29	1168	0.396
298.15 K, x2 = 0.2915	817.76	1156	0.398
298.15 K, x2 = 0.3937	848.47	1150	0.408
298.15 K, x2 = 0.4904	878.98	1148	0.422
298.15 K, x2 = 0.5988	914.7	1151	0.444
298.15 K, x2 = 0.6963	948.41	1157	0.468
298.15 K, x2 = 0.8033	987.01	1168	0.5
298.15 K, x2 = 0.9028	1024.85	1182	0.538
298.15 K, x2 = 0.9532	1044.57	1190	0.565
303.15 K, x2 = 0	734.47	1180	0.394
303.15 K, x2 = 0.0453	745.58	1168	0.385
303.15 K, x2 = 0.0871	756.09	1158	0.377
303.15 K, x2 = 0.1847	781.98	1143	0.374
303.15 K, x2 = 0.2915	812.07	1131	0.377
303.15 K, x2 = 0.3937	842.65	1125	0.386
303.15 K, x2 = 0.4904	872.96	1124	0.4
303.15 K, x2 = 0.5988	908.54	1127	0.419
303.15 K, x2 = 0.6963	942.13	1134	0.441
303.15 K, x2 = 0.8033	980.64	1145	0.472
303.15 K, x2 = 0.9028	1018.17	1160	0.507
303.15 K, x2 = 0.9532	1038.01	1168	0.528
308.15 K, x2 = 0	729.42	1154	0.374
308.15 K, x2 = 0.0453	740.41	1142	0.366
308.15 K, x2 = 0.0871	750.83	1133	0.358
308.15 K, x2 = 0.1847	776.38	1118	0.355
308.15 K, x2 = 0.2915	806.36	1107	0.357
308.15 K, x2 = 0.3937	836.73	1102	0.366
308.15 K, x2 = 0.4904	866.91	1101	0.379
308.15 K, x2 = 0.5988	902.34	1105	0.397
308.15 K, x2 = 0.6963	935.82	1111	0.418
308.15 K, x2 = 0.8033	974.2	1123	0.446
308.15 K, x2 = 0.9028	1011.88	1138	0.478
308.15 K, x2 = 0.9532	1031.41	1146	0.501
313.15 K, x2 = 0	724.32	1129	0.355
313.15 K, x2 = 0.0453	735.2	1117	0.348
313.15 K, x2 = 0.0871	745.51	1108	0.341
313.15 K, x2 = 0.1847	770.82	1093	0.338
313.15 K, x2 = 0.2915	800.54	1083	0.338
313.15 K, x2 = 0.3937	830.73	1078	0.346
313.15 K, x2 = 0.4904	860.7	1078	0.358
313.15 K, x2 = 0.5988	896.1	1082	0.377
313.15 K, x2 = 0.6963	929.45	1089	0.397
313.15 K, x2 = 0.8033	967.7	1101	0.424
313.15 K, x2 = 0.9028	1005.28	1116	0.454
313.15 K, x2 = 0.9532	1024.79	1125	0.472
